Where a SMILES comes first, the peptide text is derived from it. [ ]: non-standard residue; d: D form. Nle = CCCC[C@H](N)C(=O)O
Experiments:
[1] = tested on: ABCA1 protein; experiment: ABCA1 immunoblot of total and cell-surface protein in cholesterol-loaded macrophages; format: cell-based, mouse; conditions: for decrease in ABCA1 protein in free cholesterol-loaded macrophages: 50 μM; for decrease in ABCA1 protein in FC-loaded macrophages: calpeptin 40 μM, PD150606 25 μM (data not shown)
Method: Macrophages were pre-incubated for 14 h with 50 μg/ml acetyl-LDL in DMEM, 0.2% BSA, in the absence (CE) or presence (FC) of 58035. The cells were then incubated for 5 h with 100 μg/ml acetyl-LDL in DMEM, 0.2% BSA, in the absence or presence of 58035, respectively, with no further additions (Control) or in the presence of 10 μg/ml cycloheximide, 50 μM ALLN, or 50 μM lactacystin as indicated. Aliquots of cell lysates were then assayed for ABCA1 and β-actin protein by immunoblot analysis.
Macrophages were pre-incubated for 14 h with 50 μg/ml acetyl-LDL in DMEM, 0.2% BSA, in the absence (CE) or presence (FC) of 58035. […] Aliquots of total cell protein (top panel) or cell-surface protein (bottom panel) were then subjected to immunoblot analysis for ABCA1 and the standards β-actin or β1-integrin.
Macrophage monolayers in 35-mm dishes were washed with ice-cold PBS 3 times and then incubated with ice-cold PBS containing 0.5 mg/ml NHS—SS-biotin (Pierce) for 30 minutes at 4° C. After washing 5 times with ice-cold PBS containing 20 mM Tris-HCl, pH 8.0, the cells were scraped into PBS and pelleted by centrifugation. The pelleted macrophages were lysed in 50 μl RIPA buffer (0.5% sodium deoxycholate, 0.1% SDS, 1% Triton X-100, 20 mM Tris, 150 mM NaCl, and 5 mM EDTA, pH 8) containing 1 mM PMSF. […] of the lysate were subjected directly to 4-20% gradient SDS-polyacrylamide gel electrophoresis (SDS-PAGE) for determination of total ABCA1. The rest of the cell lysate was affinity-purified to isolate biotinylated proteins. Briefly, the cell lysates were diluted to 150 μl in RIPA buffer and incubated with 50 μl immobilized streptavidin agarose (Pierce), which was pre-washed three times with RIPA buffer at 0° C. for 2 h with gentle shaking. The agarose was pelleted by centrifugation using a microcentrifuge at 5,000 rpm for 2 min; the pellet was resuspended in 1 ml RIPA buffer, and the process was repeated 5 times. The agarose was resuspended 30 μl SDS-PAGE loading buffer containing 330 mM β-mercaptoethanol at 37^6C for 15 min and subjected to SDS-PAGE as above. ABCA1 and β-integrin were detected by Western blot using anti-ABCA1 and anti-β-integrin anti-sera. The blots were reprobed with anti-β-actin antibody, which detected no actin signal, thus verifying that no cytosolic protein was biotinylated by the procedure.
Peritoneal macrophages were lysed in RIPA buffer containing 1 mM PMSF. Nuclei were removed by centrifugation at 3000×g for 10 min at 4° C. […] For Western blot detection of ABCA1, anti-ABCA1 antiserum was used. Signals were detected using HRP-conjugated secondary anti-bodies (Bio-Rad) and ECL (Amersham Pharmacia Biotech). The membranes were reprobed with anti-β actin monoclonal antibody or anti-β1-integrin anti-serum for the proper internal controls. The relative intensities of the bands were determined by densitometry.

[2] = tested on: unfolded protein response (UPR); experiment: Immunoblot analysis of UPR markers (CHOP, PERK, IRE1α, XBP-1) in macrophages; conditions: 58035 alone, 5 h (FIG. 16B, lane 2)
Method: For detection of PERK, nuclei-free cell extracts were immunoprecipitated with anti-PERK antiserum and then immunoblotted, while for detection of ATF-4 and CHOP, immunoblots were performed on nuclear extracts. Lamin B, a nuclear protein, was used as the loading control.
Immunoprecipitation and immunoblot detection for IRE1α and PERK were conducted as described by Harding et al. (35). Immunoblot analyses of XBP-1, ATF4, and CHOP were carried out as described previously (36,38) with minor modifications. Briefly, cells were lysed in RIPA buffer to prepare whole-cell lysates or to prepare nuclei by centrifugation. The whole-cell lysates or nuclei were resuspended in 2×SDS-PAGE loading buffer and incubated at 95° C. for 10 min. Whole cell (100 μg) or nuclear lysates (20 μg) were electrophoresed on 4-20% gradient SDS-PAGE gels and electrotransferred to 0.22-μm nitrocellulose membrane using a Bio-Rad mini-transfer tank. After incubation with primary antibodies, the protein bands were detected with HRP-conjugated secondary antibodies (Bio-Rad) and ECL (Amersham Pharmacia Biotech). The membranes were reprobed with an anti-β-actin monoclonal antibody or an anti-lamin B serum to control for differences in loading.

[3] = tested on: ABCA1-mediated cholesterol efflux; experiment: 3H-cholesterol efflux to apoA-I from free cholesterol-loaded macrophages; format: cell-based, mouse; conditions: for cholesterol efflux to apoA-I from FC-loaded NPC+/− macrophages: 200 μM, 18 h apoA-1 incubation (FIG. 9D)
Method: Peritoneal macrophages from C57 mice were incubated for 5 h with 100 μg/ml ^3H-cholesterol-labeled acetyl-LDL in DMEM, 0.2% BSA, in the presence of 10 μg/ml 58035.
Acetyl-LDL (800 μg) was incubated with 10 μCi ^3H-cholesterol for 30 min at 37° C., followed by addition of 8 ml of DMEM, 0.2% BSA. The macrophages were incubated with this medium for 5 h, washed 3 times with PBS, and then incubated with DMEM, 0.2% BSA for 15 min at 37° C. After washing with PBS, the macrophages were incubated with DMEM, 0.2% BSA, containing either 15 μg/ml apoAI or 20 μg/ml HDL2. At the indicated time points, 100 μl of media was removed and centrifuged for 5 min at 14,000 rpm to pellet cellular debris. The radioactivity in this fraction of media was quantitated by liquid scintillation counting. After the last time point, the remainder of the media was removed, and the cells were dissolved in 0.5 ml of 0.1 N NaOH containing 0.5% sodium dodecylsulfate (5 h at room temperature). A 100 μl-aliquot of the cell lysate was counted, and the percent efflux was calculated as (media cpm)[…](cell +media cpm)×100. Total protein in the cell lysate was determined using the Bio-Rad DC protein assay kit. Note that there was no statistical difference in cellular cpm or protein between cholesteryl ester- and free cholesterol-loaded macrophages.

[4] = tested on: ABCA1 transporter activity (phospholipid efflux to apoA-I); experiment: 3H-phospholipid efflux to apoA-I from free cholesterol-loaded macrophages; format: cell-based, mouse; conditions: 15 min at 37° C.
Method: Aliquots of free cholesterol-loaded cells were incubated for 15 min at 37° C. in the absence or presence of 0.5% or 0.2% […] (CD). This treatment removes about 30% of total cellular cholesterol. All cells were then chased with media containing 15 μg/ml apoA-I for 3.33 h and phospholipid efflux was measured as in FIG. 6C.
Macrophages were labeled with ^3H-choline (5 μCi/ml) in DMEM, 10% FBS, for 24 h. After washing three times with PBS, the macrophages were incubated with 100 μg/ml acetyl-LDL+58035 in DMEM, 0.2% BSA, for 5 h. The cells were then incubated with 15 μg/ml apoA-1 in DMEM, 0.2% BSA, for the indicated time periods. ^3H-choline-containing phospholipids in aliquots of the medium were extracted in chloroform:methanol (2:1, v/v), and those remaining in the cells in hexane:isopropyl alcohol (3:2, v/v). The radioactivity was measured by scintillation counting.

CCCC[C@@H](C=O)NC(=O)[C@H](CC(C)C)NC(=O)[C@H](CC(C)C)NC(C)=O [ALLN] (Ac-Leu-Leu-[Nle]-aldehyde)
decrease in ABCA1 protein in free cholesterol-loaded macrophages ([1]; 5 h (FIG. 8B)): blocked the decrease in ABCA1

O=C(O)/C(S)=C/c1ccc(I)cc1 [PD150606]
decrease in ABCA1 protein in FC-loaded macrophages [1]: did not affect the decrease in ABCA1

CCCC[C@@H](C=O)NC(=O)[C@H](CC(C)C)NC(=O)OCc1ccccc1 [calpeptin]
decrease in ABCA1 protein in FC-loaded macrophages [1]: did not affect the decrease in ABCA1

CCCCCCCCCC[Si](C)(C)CCC(=O)NC(Cc1ccc(C)cc1)c1ccccc1 (stereo not shown) [compound 58035, 3-[decyldimethylsilyl]-N-[2-(4-methylphenyl)-1-phenylethyl] propanamide]
PERK activation in macrophages [2]: partially activate PERK

C[C@@H]1C[C@@H]([C@H](O)CC2CC(=O)NC(=O)C2)C(=O)[C@@H](C)C1 [cycloheximide]
decrease in ABCA1 protein in free cholesterol-loaded cells ([1]; 10 μg/ml cycloheximide, 5 h (FIG. 8B)): insensitive

COc1ccc(Cl)cc1C(=O)NCCc1ccc(S(=O)(=O)NC(=O)NC2CCCCC2)cc1 [glyburide]
cholesterol efflux to apoA-I from FC-loaded NPC+/− macrophages [3]: effectively blocked

CN(C)CCCN1c2ccccc2CCc2ccccc21 [imipramine]
induction of cholesterol efflux to ApoA-1 ([3]; FC-loaded macrophages (FIGS. 11A, 11B)): marked ability to induce cholesterol efflux to ApoA-1 | restoration of ABCA1-dependent efflux ([3]; optimal low doses, FC-loaded macrophages (FIG. 12A)): restored ABCA1-dependent efflux | ABCA1 protein expression in free cholesterol-loaded cells ([1]; low concentrations): markedly enhance

CC(=O)N[C@@H](CSC(=O)[C@]1([C@@H](O)C(C)C)NC(=O)[C@H](C)[C@@H]1O)C(=O)O [lactacystin]
decrease in ABCA1 protein in free cholesterol-loaded macrophages ([1]; 5 h (FIG. 8B)): blocked the decrease in ABCA1

[Na+].[Na+].[Na+].[O]=[V]([O-])([O-])[O-] [ortho-vanadate, sodium orthovanadate]
cholesterol efflux to apoA-I from FC-loaded NPC+/− macrophages [3]: effectively blocked

methyl-β-cyclodextrin
defect in phosphatidylcholine efflux to apoA-I of free cholesterol-loaded cells ([4]; 0.5% or 0.2% (FIG. 6E)): reversed | removal of total cellular cholesterol ([4]; 0.5% or 0.2%, FC-loaded cells): about 30%

Reference: patent publication US20040259853A1, “Methods for preventing acute clinical vascular events in a subject” (The Trustees of Columbia University, priority 2000, published 2004)
